Assay results as given in US20220177511A1, “SERIES OF HALOGENATED TETRACYCLIC TRITERPENE DERIVATIVES AND THEIR PREPARATION AND APPLICATION” (SHANGHAI KING-X BIOTECH CO., LTD, priority 2019, published 2022).
Entries after “also recorded” stand apart in the source; their conditions may differ. Like-named read-outs stand apart in the source and are kept apart here.

Columns and labels:
C57 mouse CHF model = assay: In vivo efficacy on chronic heart failure in mice (coronary artery ligation, echocardiography), enalapril control; conditions: for Cardiac output per minute (CO), day 28 vs day 0: p<0.01 or p<0.05 (FIG. 6)
Method: C57 mouse coronary artery ligation method was used in this experiment to prepare the mouse CHF model. The differences in echocardiography, hemodynamics and histopathology of the model were observed after administration. Test substance: compound 2. Solvent: 0.3% sodium carboxymethyl cellulose. Dosage: 1 mg/kg, 3 mg/kg, 10 mg/kg, 30 mg/kg and 100 mg/kg. Route of administration: intragastric. Control drug: enalapril 2 mg/kg. Strain: C57 mouse; Age: 7 weeks; Weight: 18-20 g; Gender: Male; Grade: SPF C57 mouse CHF model was established by coronary artery ligation method in this experiment. The differences in echocardiography, hemodynamics and histopathology of the model were observed after administration. 5 dose groups were set for compound 2 in this experiment. Enalapril was selected as the positive control. Once daily for 28 consecutive days. The doses for each group was 1 mg/kg, 3 mg/kg, 10 mg/kg, 30 mg/kg and 100 mg/kg. Positive control group: Enalapril (2 mg/kg) was administered after CHF was established. The mice were anesthetized in a box filled with isoflurane. After the mice were anesthetized, the left 4th intercostal space was opened to expose the left atrial appendage and left ventricle. It can be seen that the left coronary artery runs downward from the middle of the left atrial appendage to the anterior wall of the left ventricle. The coronary artery is sutured at a high position about 1 mm from the lower border of the left atrial appendage. After ligation, the myocardium gradually changes from fleshy red to pale white, indicating myocardial infarction. The model is successfully established, and the chest is closed layer by layer. After the spontaneous breathing of the mice recovered, the mice were caged and reared in a day-night cycle with free access to water and food. After being reared for 30 days, the chronic heart failure model was detected by echocardiography, and the mice with successful chronic heart failure model were selected. Qualified CHF mice screened by echocardiography were randomly grouped. Mice were given compound 2 by intragastric administration once daily for 28 consecutive days. The body weight of mice was measured every week, and echocardiography was performed after 28 days of administration. After the […] anesthetized, 1 mm^3 tissue was taken from the hearts of 3 mice in each group, fixed with electron microscope fixative, and detected by transmission electron microscope to observe the ultrastructure of the heart. All remaining heart tissues were fixed with 10% formaldehyde, and stained with HE for histopathology to observe histopathological changes.

[1] = Plasma pharmacokinetics after single intravenous injection in rats; type: in vivo; conditions: rat, intravenous 2 mg/kg, Mean ± SD; for concentration at 0.05 h: read-out: C0.05; for MRT inf: read-out: MRT0-∞; for Vd: read-out: Vz
Method: Strain: SD rat; Gender: half male and female. Weight: about 200-250 g. Source: Shanghai Slac Laboratory Animal Co., Ltd. Laboratory Animal Production License No.: SOCK (Shanghai) 2017-0005. Laboratory Animal Use License Certificate number: SYXK (Shanghai) 2014-0018. Breeding: constant temperature purification and ventilation animal room, 20-26° C., free food and water, humidity 40-70%, light for 12 h.
Route B: single intravenous injection. Volume: calculated according to 5 mL/kg body weight. Preparation: an appropriate amount of compound 2 is dissolved in 3% total volume of DMSO. 3% total volume of castor oil is added to the solution and mixed by vortexing, an appropriate amount of normal saline is added to form an intravenous drug solution (0.4 mg/mL clear solution).
12 SD rats were divided into 2 groups, 6 rats in each group, […]. Fasting for 12 h before administration, free drinking water. The doses of 10 mg/kg were administered as a single gavage, and the doses of 2 mg/kg were administered as a single intravenous injection. About 100 μL orbital blood was collected before administration, 3 min, 10 min, 20 min, 30 min, 1 h, 2 h, 3 h, 4 h, 6 h, 8 h, 11 h, and 24 h after administration. For intravenous administration, orbital blood was collected before administration, 3 min, 8 min, 15 min, 30 min, 1 h, 2 h, 3 h, 4 h, 6 h, 8 h, 11 h, 24 h after injection. The blood was anticoagulated with 1% heparin, centrifuged at 8000 rpm for 4 min, and the plasma was separated. Store at −20° C. High concentration samples were diluted with blank plasma. 2.1.4 Determination method of plasma samples 2.1.4.1 Instrument (LC-MS/MS)
Liquid chromatography system: Ultimate3000 liquid chromatography system (including Ultimate3000 ternary infusion pump, Ultimate3000 column oven, Ultimate3000 autosampler and Ultimate3000 vacuum degasser), Dionex Corporation. MS/MS system: 4000 Q-Trap tandem mass spectrometer with electrospray ionization source (ESI source), AB Company
Column: Athena C18-WP 100A (2.1×50 mm, 5 μm); Injection volume: 10 μL; Mobile phase: A: acetonitrile; C: 0.05% ammonia, gradient elution (see table below); Flow rate: 0.3 mL/min
The ion source is electrospray ionization source (ESI), the drying gas (N2) temperature is 500° C., the electrospray voltage is −4500 V, the detection method is negative ion detection, the scanning method is the […] (MRM) method and the scanning time is 0.15 s. The mass spectrometry parameters are as follows:
50 μL of rat whole blood was added with 2.5 μL of internal standard working solution (250 ng/mL tolbutamide). 150 μL of acetonitrile was used to precipitate the proteins. The sample was centrifuged at 13,000 rpm and 4° C. for 5 min. The upper organic phase was taken and filtered with a 0.22 μM microporous membrane, which was then analyzed by LC-MS/MS.

[2] = mice with heart failure, intragastric once daily 28 days, dose not stated

Structure (SMILES): CC(C)(O)[C@@H]1CC[C@](C)([C@H]2[C@@H](O)C[C@@]3(C)[C@@H]4C[C@H](O)[C@H]5C(C)(C)C(F)(F)CC[C@@]56C[C@@]46CC[C@]23C)O1 [Compound 2, (2aR,3R,4S,5aS,5bS,7S,7aR,11aR,12aS)-9,9-difluoro-3-((2R,5S)-5-(2-hydroxypropan-2-yl)-2-methyltetrahydrofuran-2-yl)-2a,5a,8,8-tetramethyltetradecahydro-1H,12H-cyclopenta[a]cyclopropa[e]phenanthrene-4,7-diol]
- Short axis shortening rate (FS %), day 28 vs day 0 (C57 mouse CHF model; 10 mg/kg group, p<0.0005 (FIG. 7)): significant increase; also recorded: significant elevated
- EF value, day 28 vs day 0 (C57 mouse CHF model; 10 mg/kg group, p<0.0005, highest increase p<0.0001 (FIG. 5)): significantly increased
- Cardiac output per minute (CO), day 28 vs day 0 (C57 mouse CHF model; 10 mg/kg group): significantly increased
- EF value, day 28 vs day 0 (C57 mouse CHF model; 30 mg/kg group, p<0.0005 (FIG. 5)): significantly increased
- Cardiac output per minute (CO), day 28 vs day 0 (C57 mouse CHF model; 30 mg/kg group): significantly increased
- Cardiac output per minute (CO), day 28 vs day 0 (C57 mouse CHF model; 100 mg/kg group): significantly increased
- CO per minute (C57 mouse CHF model; [2]): significantly increased
- ejection fraction (EF) (C57 mouse CHF model; [2]): significantly increased
- heart rate (HR) (C57 mouse CHF model; [2]): without increasing
- short-axis shortening rate (FS) (C57 mouse CHF model; [2]): significantly increased
- AUC0-t ([1]; both sexes, all rats (♂ and ♀)): 1590 ± 585 ng·h/mL
- AUC(0-inf) ([1]; both sexes, all rats (♂ and ♀)): 1660 ± 656 ng·h/mL
- clearance ([1]; both sexes, all rats (♂ and ♀)): 23 mL/min/kg
- half-life ([1]; both sexes, all rats (♂ and ♀)): 1.18 ± 0.41 h
- concentration at 0.05 h ([1]; both sexes, all rats (♂ and ♀)): 1460 ± 232 ng/mL
- MRT inf ([1]; both sexes, all rats (♂ and ♀)): 1.55 ± 0.59 h
- Vd ([1]; both sexes, all rats (♂ and ♀)): 2.13 ± 0.38 L/kg
- AUC0-t ([1]; female, rats ♀): 2120 ± 114 ng·h/mL
- AUC(0-inf) ([1]; female, rats ♀): 2250 ± 206 ng·h/mL
- clearance ([1]; female, rats ♀): 14.9 mL/min/kg
- half-life ([1]; female, rats ♀): 1.47 h
- concentration at 0.05 h ([1]; female, rats ♀): 1390 ± 250 ng/mL
- MRT inf ([1]; female, rats ♀): 2.03 ± 0.41 h
- Vd ([1]; female, rats ♀): 1.86 ± 0.348 L/kg
- AUC0-t ([1]; male, rats ♂): 1060 ± 113 ng·h/mL
- AUC(0-inf) ([1]; male, rats ♂): 1080 ± 106 ng·h/mL
- clearance ([1]; male, rats ♂): 31 mL/min/kg
- half-life ([1]; male, rats ♂): 0.9 h
- concentration at 0.05 h ([1]; male, rats ♂): 1540 ± 233 ng/mL
- MRT inf ([1]; male, rats ♂): 1.07 ± 0.09 h
- Vd ([1]; male, rats ♂): 2.39 ± 0.168 L/kg
